# Experimental data reported in patent US12534451B2, “Small molecule modulators of PanK” (St. Jude Children's Research Hospital, priority 2019, dated 2026).
# How the values were obtained:
# human PANK3 = human PANK3 (Homo sapiens (Human), UniProt Q9H999); assay: PANK activity assay (radiochemical, D-[1-14C]pantothenate); format: biochemical; settings: 5 nM human PANK3, 2.5 mM ATP, 45 μM pantothenate, 10 min at 37° C.; average ± data range
# Procedure: The PanK activity and Surface Plasmon Resonance assays were conducted as explained in the literature.
# If the IC^50 was determined to be in the nM range then the assay was repeated in the presence of 0-1 μM or 0-0.1 μM compound to more precisely determine the IC^50. All the experiments were repeated twice in duplicate and the data were an average ±data range.
# The experiments mimicking the mixture of ligands present in vivo were performed under different conditions. […] The IC^50 values for the structure-activity study were calculated by fitting the inhibition data to a one-site model of the Michaelis-Menten equation. […] Thus, the data were fit to Morrison's quadratic equation (GraphPad software) that accounts for the impact of enzyme inhibitor binding on the free concentration of inhibitor.
# [1] = tested on: Human C3A [HepG2/C3A] cells; assay: Cellular total CoA determination in C3A cells; format: cell-based; settings: 24 hrs of treatment
# Procedure: Human C3A [HepG2/C3A, derivative of HepG2] cells (ATCC #CRL-10741) were purchased from ATCC® and maintained in Eagle's minimum Essential medium (ATCC) supplemented with 2 mM glutamine, 10% fetal bovine serum (FCS, Altanta Biologicals), 50 U/ml penicillin and […] streptomycin. The C3A cell line was confirmed to be mycoplasma-free. Test compounds or vehicle control (DMSO) was added and after 24 hrs of treatment the cells were washed with PBS and harvested and subjected to total CoA determination.
# Cultured cells were resuspended in 2 ml cold water to which 500 μl of 0.25M KOH was added, derivatized with monobromobimane (mBBr, Life technologies) and quantified by HPLC. 30 mg of frozen tissue is homogenized in 2 ml of 1 mM KOH and then derivatized with mBBr. The mBBr derivatized samples were fractionated by reverse-phase HPLC using a Gemini C18 3 μm column (150×4.60 mm) from Phenomenex. The chromatography system was a Waters e2695 separation module with a UV/Vis and fluorescence detector and controlled by Empower 3 software. Solvent A was 50 mM potassium phosphate pH 4.6, and solvent B was 100% acetonitrile. Twenty microliters of sample was injected onto the column, and the flow rate was 0.5 ml/min. The HPLC program was the following: starting solvent mixture of 90% A/10% B, 0-2 min isocratic with 10% B, 2-6 min linear gradient from 10% B to 15% B, 6-18 min concave gradient from 15% B to 40% B, 18-23 min isocratic with 40% B, 23-25 min linear gradient from 40 to 10%, and 25-30 min isocratic with 10% B. The UV/vis detector was set at 393 nm, and the fluorescence detector was set with excitation at 393 nm and emission at 470 nm. The elution position of the mBBr-CoA, was determined by comparison with mBBr-CoA prepared from commercial CoA (Avanti Polar Lipids). The areas under the mBBr-derivatized CoA was integrated and compared to known concentrations of the mBBr-CoA standard.
# Sequence of human PANK3 (Q9H999 whole entry): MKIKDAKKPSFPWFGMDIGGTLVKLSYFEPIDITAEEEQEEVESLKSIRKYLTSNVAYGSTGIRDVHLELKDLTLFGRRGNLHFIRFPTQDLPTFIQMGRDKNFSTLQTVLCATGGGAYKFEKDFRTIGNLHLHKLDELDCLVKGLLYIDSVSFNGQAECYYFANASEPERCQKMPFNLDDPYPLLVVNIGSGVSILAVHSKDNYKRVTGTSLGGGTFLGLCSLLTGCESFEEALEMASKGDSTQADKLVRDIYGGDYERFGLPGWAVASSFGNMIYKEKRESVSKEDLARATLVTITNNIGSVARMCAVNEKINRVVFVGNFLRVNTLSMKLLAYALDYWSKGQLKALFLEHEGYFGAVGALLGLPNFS
SMILES,IC50 (human PANK3) [nM],C3A CoA% elevation [1] [%]
CS(=O)(=O)Nc1ccc(CC(=O)N2CCN(c3ccc(C#N)nn3)CC2)cc1 [PZ-4202],,183.3
O=C(Cc1ccc(C2CC2)c(F)c1)N1CCN(c2nc3cccnc3o2)CC1 [PZ-4343],49 ± 3,
O=C(Cc1ccc(C2CC2)cc1F)N1CCN(c2nc3cccnc3o2)CC1 [PZ-4344],7.6 ± 0.48,
C[C@@H]1CN(c2ccc(Cl)nn2)CCN1C(=O)Cc1ccc(N(C)C)cc1 [PZ-4112],39.7 ± 4.7,
CC(C)c1ccc(CC(=O)NCC2(CCl)CN(c3ccc(Cl)nn3)C2)cc1 [PZ-4468],1.2 ± 0.13,
O=C(Cc1ccc(C2CC2)cc1F)N1CCN(c2nc3ncccc3o2)CC1 [PZ-4349],2.1 ± 0.26,
"O=C(Cc1ccc(C2CC2)cc1)N1CCN(c2ccc(C(F)(F)F)nn2)CC1 [PZ-4283, 2-(4-cyclopropylphenyl)-1-(4-(6-(trifluoromethyl)pyridazin-3-yl)piperazin-1-yl)ethanone]",,218.2
O=C(Cc1ccc(C2CC2)cc1)N1CCN(c2nc3ccc(F)cc3o2)CC1 [PZ-4304],14.3 ± 0.6,167
CS(=O)(=O)Nc1ccc(CC(=O)N2CCN(c3ccc(C(F)(F)F)nn3)CC2)cc1 [PZ-4295],,140.8
"CN(C)c1ccc(CC(=O)N2CCN(c3ccc(C#N)nn3)CC2)cc1 [PZ-4060, 6-(4-(2-(4-(dimethylamino)phenyl)acetyl)piperazin-1-yl)pyridazine-3-carbonitrile]",,230.5
O=C(Cc1ccc(C2CC2)cc1F)N1CCN(c2nc3ncc(F)cc3o2)CC1 [PZ-4352],0.86 ± 0.078,
O=C(Cc1ccc(C2CC2)c(F)c1)N1CCN(c2nc3ncc(Cl)cc3o2)CC1 [PZ-4360],5.6 ± 0.88,
O=C(Cc1ccc(C2CC2)cc1)NCC1(CCl)CN(c2nc3cc(F)cnc3o2)C1 [PZ-4472],21.8 ± 1.78,
O=C(Oc1ccc(C2CC2)cc1)N1CCN(c2nc3ncc(F)cc3o2)CC1 [PZ-4436],2 ± 0.18,
C[C@@H]1CN(c2nc3cc(F)cnc3o2)CCN1C(=O)Cc1ccc(C2CC2)cc1 [PZ-4470],3.88 ± 0.24,
"CN(C)c1ccc(CC(=O)N2CCN(c3ccc(Cl)nn3)CC2)cc1 [PZ-4061, 1-(4-(6-chloropyridazin-3-yl)piperazin-1-yl)-2-(4-(dimethylamino)phenyl)ethanone]",,418.7
CN(c1ccc(CC(=O)N2CCN(c3ccc(Cl)nn3)CC2)cc1)S(C)(=O)=O [PZ-4200],120 ± 11.2,
C[C@H]1CN(c2ccc(Cl)nn2)CCN1C(=O)Cc1ccc(N(C)C)cc1 [PZ-4111],11.1 ± 0.7,
O=C(Cc1ccc(C2CC2)cc1F)N1CCN(c2nc3ncc(Cl)cc3o2)CC1 [PZ-4361],0.81 ± 0.15,
C[C@H]1CN(C(=O)Cc2ccc(C3CC3)cc2)CCN1c1nc2cc(F)cnc2o1 [PZ-4474],1.37 ± 0.14,
CCS(=O)(=O)Nc1ccc(CC(=O)N2CCN(c3ccc(Cl)nn3)CC2)cc1 [PZ-4216],,54.9
CC(C)c1ccc(CC(=O)NCC2(CCl)CN(c3nc4cc(F)cnc4o3)C2)cc1 [PZ-4473],7.51 ± 0.62,
O=C(Cc1ccc(C2CC2)cc1F)N1CCN(c2nc3ccc(F)cc3o2)CC1 [PZ-4383],3.4 ± 0.33,
"O=C(Cc1ccc(C2CC2)cc1)NCC1(CCl)CN(c2ccc(Cl)nn2)C1 [PZ-4469, N-((3-(chloromethyl)-1-(6-chloropyridazin-3-yl)azetidin-3-yl)methyl)-2-(4-cyclopropylphenyl)acetamide]",5.4 ± 0.42,
"O=C(Cc1ccc(C2CC2)cc1)NCC1(CO)CN(c2ccc(Cl)nn2)C1 [PZ-4511, N-((1-(6-chloropyridazin-3-yl)-3-(hydroxymethyl)azetidin-3-yl)methyl)-2-(4-cyclopropylphenyl)acetamide]",606 ± 237,
O=C(Cc1ccc(C2CC2)c(F)c1)N1CCN(c2nc3ncccc3o2)CC1 [PZ-4348],5.7 ± 0.49,
"CC(=O)Nc1ccc(CC(=O)N2CCN(c3ccc(Cl)nn3)CC2)cc1 [PZ-4071, N-(4-(2-(4-(6-chloropyridazin-3-yl)piperazin-1-yl)-2-oxoethyl)phenyl)acetamide]",,185.3
CC(=O)OCC1(CNC(=O)Cc2ccc(C3CC3)cc2)CN(c2ccc(Cl)nn2)C1 [PZ-4510],1110 ± 852,
O=C(Cc1ccc(C2CC2)cc1)N1CCN(c2nc3cc(F)ccc3o2)CC1 [PZ-4303],54 ± 6.4,
O=C(Nc1ccc(C2CC2)cc1F)N1CCN(c2nc3c(F)cc(F)cc3s2)CC1 [PZ-4433],1.79 ± 0.09,

# Further lines, with some results ahead:
IC50 (human PANK3) [nM],SMILES,C3A CoA% elevation [1] [%]
37.5 ± 2.4,O=C(Cc1ccc(Cl)cc1)N1CCN(c2nc3ncc(F)cc3o2)CC1 [PZ-4363],
5.4 ± 0.4,O=C(Cc1ccc(C2CC2)cc1)N1CCN(c2nc3cc(F)ccc3s2)CC1 [PZ-4306],238.6
1.04 ± 0.06,CC(C)c1ccc(NC(=O)N2CCN(c3nc4c(F)cc(F)cc4s3)CC2)cc1 [PZ-4434],
2.9 ± 0.1,O=C(Cc1ccc(C2CC2)cc1)N1CCN(c2nc3ncccc3o2)CC1 [PZ-4314],275
9.9 ± 1.6,CS(=O)(=O)Nc1ccc(CC(=O)N2CCN(c3nc4cccnc4o3)CC2)cc1 [PZ-4323],
0.33 ± 0.02,CC(C)c1ccc(CC(=O)N2CCN(c3nc4ncc(F)cc4o3)CC2)cc1 [PZ-4435],
25 ± 1.6,CN(C)c1ccc(CC(=O)N2CCN(c3nc4c(F)cc(F)cc4s3)CC2)cc1 [Lee-4296],198.6
2.1 ± 0.21,O=C(Cc1ccc(C2CC2)cc1)N1CCN(c2nc3cc(F)cnc3o2)CC1 [PZ-4386],
1.23 ± 0.17,O=C(Cc1ccc(C2CC2)cc1)N1CCN(c2nc3ncc(Cl)cc3o2)CC1 [PZ-4359],
27 ± 4,N#Cc1cnc(N2CCN(C(=O)Cc3ccc(C4CC4)cc3)CC2)cn1 [PZ-4284],448.2
173 ± 48.5,O=C(Cc1ccc(C2CC2)cc1)N1CCN(c2nc3ccccc3o2)CC1 [PZ-4305],
0.76 ± 0.05,CC(C)c1ccc(CC(=O)N2CCN(c3nc4cc(F)cnc4o3)[C@@H](C)C2)cc1 [PZ-4475],
65 ± 9.8,"CC(=O)Nc1ccc(CC(=O)N2CCN(c3ccc(C#N)nn3)CC2)cc1 [PZ-4070, N-(4-(2-(4-(6-cyanopyridazin-3-yl)piperazin-1-yl)-2-oxoethyl)phenyl)acetamide]",
391 ± 129,CN(C)c1ccc(CC(=O)N2CCN(c3nc4cccnc4s3)CC2)cc1 [PZ-4317],
1 ± 0.1,O=C(Cc1ccc(C2CC2)cc1)N1CCN(c2nc3ncccc3s2)CC1 [PZ-4298],60.1
10.3 ± 0.55,O=C(Cc1ccc(C2CC2)cc1)N1CCN(c2nc3cc(F)cnc3o2)CC1 [PZ-4463],

IC50 (human PANK3) [nM],SMILES,C3A CoA% elevation [1] [%]
125 ± 19.2,CC(C)c1ccc(CC(=O)N2CCN(c3ncc4ccsc4n3)CC2)cc1 [PZ-4478],
440 ± 45,"CN(C)c1ccc(CC(=O)N2CCN(c3ccc(C#N)nn3)CC2)cn1 [PZ-4069, 6-(4-(2-(6-(dimethylamino)pyridin-3-yl)acetyl)piperazin-1-yl)pyridazine-3-carbonitrile]",
1.1 ± 0.12,"O=C(Cc1ccc(C2CC2)cc1)N1CCN(c2nc3ncc(F)cc3o2)CC1 [PZ-4350, 2-(4-cyclopropylphenyl)-1-(4-(6-fluorooxazolo[4,5-b]pyridin-2-yl)piperazin-1-yl)ethenone]",
3.95 ± 0.26,CC(C)c1ccc(CC(=O)N2CCN(c3nc4cccnc4s3)CC2)cc1 [PZ-4432],
183 ± 71,CN(C)c1ccc(CC(=O)N2CCN(c3nc4c(F)cccc4s3)CC2)cc1 [PZ-4318],
1.37 ± 0.16,CC(C)c1ccc(CC(=O)N2CCN(c3nc4cc(F)cnc4o3)CC2)cc1 [PZ-4462],
713 ± 294,O=C(Cc1ccc(C2CC2)cc1)N1CCN(c2ncc3ccsc3n2)CC1 [PZ-4479],
2.62 ± 0.18,CN(C)c1ccc(CC(=O)N2CCN(c3nc4ncc(F)cc4o3)CC2)cc1 [PZ-4467],
346 ± 100,CN(C)c1ccc(CC(=O)N2CCN(c3nc4cccnc4o3)CC2)cc1 [PZ-4319],
987 ± 476,O=C(Cc1ccc(C2CC2)cc1)N1CCN(c2nc3ccccc3[nH]2)CC1 [PZ-4312],
1.95 ± 0.25,CS(=O)(=O)Nc1ccc(CC(=O)N2CCN(c3nc4ncc(F)cc4o3)CC2)cc1 [PZ-4357],
0.88 ± 0.09,CC(C)c1ccc(CC(=O)N2CCN(c3nc4cc(F)cnc4o3)C[C@H]2C)cc1 [PZ-4471],
5.67 ± 0.39,CS(=O)(=O)Nc1ccc(CC(=O)N2CCN(c3nc4cccnc4s3)CC2)cc1 [PZ-4321],
77.3 ± 8.2,Cc1ccc2oc(N3CCN(C(=O)Cc4ccc(C5CC5)cc4)CC3)nc2n1 [PZ-4364],
370 ± 47,CN(C)c1ccc(CC(=O)N2CCN(c3nc4ccccc4s3)CC2)cc1 [PZ-4290],
